In PubChem BioAssay AID1204 (EPA DSSTox, 2008):
Results filed as inconclusive are left out. Active and inactive are the calls of the source.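 Rule for the calls: active = relative estrogen receptor binding affinity above 1E-5, where estradiol scores 100; inconclusive = weak binder, under half inhibition at top dose, or affinity below 1E-5; inactive = no binding seen, affinity zero.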

System: estrogen receptor (rat uterine cytosol)
Experiment: DSSTox (NCTRER) National Center for Toxicological Research Estrogen Receptor Binding Database;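 for relative binding affinity: ratio of estradiol IC50 over compound IC50 times 100 so estradiol equals 100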
Conditions: rat uterine cytosol ER competitive binding, RBA; for relative binding affinity: stronger effect = higher value
Source text: Researchers within FDA's National Center for Toxicological Research (NCTR) generated a database of experimental estrogen receptor binding results for the express purpose of developing improved QSAR models to predict ER binding affinities.The NCTR ER database is a structurally diverse set of natural, synthetic, and environmental estrogens covering most known estrogenic classes and spanning a wide range of biological activity. It represents the largest published ER binding database of same-assay results generated in a single laboratory. […] Information on the percent purity and purchasing source for all chemicals are not included in the DSSTox SDF, but can be obtained from the original NCTR ER Source database and Main Citations listed below. The main citation (Fang et al., 2001) surveys the NCTR ER database from a chemical class based, structure-activity relationship (SAR) perspective. Qualitative SAR characteristics of the NCTR ER database are discussed and a set of general hierarchical rules for identifying potential estrogens are presented. The DSSTox NCTRER SDF augments the original NCTR ER database with chemical class and SAR information abstracted from Fang et al. (2001). The DSSTox SDF file supplements the measured ER relative binding affinity for each chemical (ER_RBA) with chemical class assignment to one of 6 major estrogenic classes further divided into 20 subclasses (ChemClass_ERB), along with a qualitative activity measure, ActivityCategory_ER_RBA. A brief narrative SAR rationale pertaining to ER RBA patterns observed by Fang et al. (2001) for each of the 20 subclasses within the database are provided in the field, ActivityCategory_Rationale_ChemClass_ERB. The original NCTR ER database, from which the expanded DSSTox NCTRER was formed, is contained within a larger Endocrine Disruptor Knowledge Base (EDKB) accessible from the FDA Source Website. That website provides online access to a relational database comprised of in vitro and in vivo experimental data for about 2000 natural and synthetic compounds, much of this extracted from the literature and representing testing in many laboratories. Data are included for biological assays that measure estrogenic and androgenic activity. Estrogenic endpoints include in vitro assays for estrogen receptor competitive binding affinity, cell proliferation, and reporter-gene assays, and in vivo assays for uterotrophic activity (i.e., uterine weight gain and vaginal cornification). The database also contains a bibliography of over 1200 citations, many of which include abstracts.
Estrogen receptor relative binding affinity is determined using a competitive receptor binding assay as described in NCTRER Ref (Blair et al., 2000). Briefly, a chemical competes with radiolabeled E2 (i.e., estradiol) for binding to the ER in rat uterine cytosol and the concentration of chemical that causes 50% inhibition of E2 binding (i.e., IC50) is measured. The ER_RBA is calculated by dividing the IC50 of E2 (9X10-10M) by the IC50 of the competitor and multiplying by 100 (E2 RBA = 100). The validated assay tested 1nM E2 with concentrations of competitor ranging from 1nM to 1mM. The larger the ER_RBA values, the greater the binding affinity; ER_RBA > 100 means compound has greater binding affinity than natural ER ligand, E2. […] Activity Score is mapping of LOG_ER_RBA values (ER-RBA>1E-5), spanning activity range [MIN, MAX] onto Integer 20-100 Activity range, where 100 is highest potency and 20 is lowest active potency. If Activity Outcome is "active": Activity Score = 80 * INTEGER[(LOG_ER_RBA - MIN)/(MAX […] MIN)]. If Activity Outcome is "inconclusive" (i.e., slight binder): Activity Score = 5.

[1] = ChemClass_ERB: DES Hexestrol derivatives
[2] = ChemClass_ERB: Phytoestrogens Flavones
[3] = ChemClass_ERB: Phytoestrogens Chalconoids
[4] = ChemClass_ERB: Phytoestrogens Isoflavones
[5] = ChemClass_ERB: Diphenylmethanes Diphenolalkanes
[6] = ChemClass_ERB: Phenols Alkyloxy
[7] = ChemClass_ERB: Steroids With aromatic A ring
[8] = ChemClass_ERB: Steroids Without aromatic A ring
[9] = ChemClass_ERB: Phytoestrogens Flavanones
[10] = ChemClass_ERB: Phytoestrogens Mycoestrogens
[11] = ChemClass_ERB: Biphenyls nonchlorinated

CCC(c1ccc(O)cc1)C(CC)c1ccc(OC)cc1 (configuration not stated)
relative binding affinity [1]: 9.33%

Cc1cc(O)ccc1Cl
relative binding affinity (ChemClass_ERB: Phenols Alkyl): 0.00041%

Nc1ccc(/C=C/c2ccc(N)cc2)cc1
outcome (ChemClass_ERB: Misc): inactive

O=c1cc(-c2ccc(O)cc2)oc2ccc(O)cc12
relative binding affinity [2]: 0.151%

O=S1OCC2C(CO1)C1(Cl)C(Cl)=C(Cl)C2(Cl)C1(Cl)Cl (configuration not stated)
outcome (ChemClass_ERB: Misc): inactive

CC/C(=C(/c1ccc(OCCN(C)C)cc1)c1cccc(O)c1)c1ccccc1
relative binding affinity (ChemClass_ERB: DES Triphenylethylenes): 15.1%

CCCCCCO
outcome (ChemClass_ERB: Misc): inactive

C/C=C(/C(=C/C)c1ccc(O)cc1)c1ccc(O)cc1
relative binding affinity [1]: 37.1%

Cn1c(=O)c2c(ncn2C)n(C)c1=O
outcome (ChemClass_ERB: Misc): inactive

ClC(Cl)=C(c1ccc(Cl)cc1)c1ccc(Cl)cc1
outcome (ChemClass_ERB: Diphenylmethanes DDTs): inactive

O=C(/C=C/c1ccc(O)cc1)c1ccc(O)cc1O
relative binding affinity [3]: 0.055%

COc1ccc(-c2coc3cc(O)ccc3c2=O)cc1
relative binding affinity [4]: 0.00104%

c1ccc2c(c1)OCCOCCOc1ccccc1OCCOCCO2
outcome (ChemClass_ERB: Misc): inactive

CCCCCCCCCc1ccc(O)cc1
relative binding affinity (ChemClass_ERB: Phenols Alkyl): 0.0295%

O=C(C(=O)c1ccc(O)cc1O)c1ccc(O)cc1O
relative binding affinity [1]: 0.209%

CN(C)c1ccc(Cc2ccc(N(C)C)cc2)cc1
outcome (ChemClass_ERB: Misc): inactive

CCCCCCCCOC(=O)c1ccccc1C(=O)OCCCCCCCC
outcome (ChemClass_ERB: Misc): inactive

Oc1ccccc1Cl
outcome (ChemClass_ERB: Phenols Alkyl): inactive

CC(C)(C)c1cc(Cc2cc(C(C)(C)C)c(O)c(C(C)(C)C)c2)cc(C(C)(C)C)c1O
outcome [5]: inactive

CCCCCCCOc1ccc(O)cc1
relative binding affinity [6]: 0.00131%

C[C@]12CC[C@@H]3c4ccc(O)cc4CC[C@H]3[C@@H]1CCC2=O
relative binding affinity [7]: 7.24%

C#C[C@]1(O)CC[C@H]2[C@@H]3CCc4cc(OC)ccc4[C@H]3CC[C@@]21C
relative binding affinity [7]: 2.24%

O=c1c(-c2ccc(O)cc2)coc2cc(O[C@@H]3O[C@H](CO)[C@@H](O)[C@H](O)[C@H]3O)cc(O)c12
outcome [4]: inactive

C#C[C@]1(O)CC[C@H]2[C@@H]3CCc4cc(O)ccc4[C@H]3[C@@H](OC)C[C@@]21C
relative binding affinity [7]: 13.8%

O=c1c(O)c(-c2ccc(O)cc2O)oc2cc(O)cc(O)c12
relative binding affinity [2]: 0.00081%

OCc1ccccc1
outcome (ChemClass_ERB: Misc): inactive

Clc1c(Cl)c(Cl)c(Cl)c(Cl)c1Cl
outcome (ChemClass_ERB: Misc): inactive

CC(C)CCC[C@@H](C)[C@H]1CC[C@H]2[C@@H]3CC=C4C[C@@H](O)CC[C@]4(C)[C@H]3CC[C@]12C
outcome [8]: inactive

Oc1c(Cl)cc(-c2cc(Cl)c(O)c(Cl)c2)cc1Cl
relative binding affinity (ChemClass_ERB: Biphenyls PCBs): 0.00056%

O=c1cc(-c2ccccc2)oc2cc(O)c(O)c(O)c12
relative binding affinity [2]: 0.0009%

O=C1CC(c2ccccc2)Oc2ccc(O)cc21 (configuration not stated)
relative binding affinity [9]: 0.00089%

C[C@H]1CCC[C@@H](O)CCCCCc2cc(O)cc(O)c2C(=O)O1
relative binding affinity [10]: 0.646%

COc1ccc2[nH]cc(CCNC(C)=O)c2c1
outcome (ChemClass_ERB: Misc): inactive

O=C(c1ccccc1O)c1ccccc1O
outcome (ChemClass_ERB: Diphenylmethanes Benzophenones): inactive

O=P(Oc1ccccc1)(Oc1ccccc1)Oc1ccccc1
outcome (ChemClass_ERB: Misc): inactive

C[C@]12C[C@H](O)[C@H]3[C@@H](CCC4=CC(=O)CC[C@@]43C)[C@@H]1CC[C@@H]2C(=O)CO
outcome [8]: inactive

O=C1CC(c2ccc(O)cc2)Oc2ccccc21 (configuration not stated)
relative binding affinity [9]: 0.00223%

Oc1ccc(OCc2ccccc2)cc1
relative binding affinity [6]: 0.00036%

C[C@]12CC[C@H](O)C[C@@H]1CC[C@@H]1[C@@H]2CC[C@]2(C)[C@@H](O)CC[C@@H]12
relative binding affinity [8]: 0.12%

CCCCCCC=O
outcome (ChemClass_ERB: Misc): inactive

CCC(C)c1ccccc1 (configuration not stated)
outcome (ChemClass_ERB: Misc): inactive

ClC1(Cl)C2(Cl)C3(Cl)C4(Cl)C(Cl)(Cl)C5(Cl)C3(Cl)C1(Cl)C5(Cl)C24Cl (configuration not stated)
outcome (ChemClass_ERB: Misc): inactive

COc1ccccc1-c1cc(=O)c2cc(O)ccc2o1
outcome [2]: inactive

C[C@H](Cc1ccc(O)c(O)c1)[C@H](C)Cc1ccc(O)c(O)c1
relative binding affinity (ChemClass_ERB: Misc): 0.0309%

Oc1cc(O)c2c(c1)O[C@H](c1ccc(O)c(O)c1)[C@@H](O)C2
outcome [9]: inactive

CCOC(=O)/C=C/c1ccccc1
outcome (ChemClass_ERB: Misc): inactive

Cc1ccc2c(C)cccc2c1
outcome (ChemClass_ERB: Misc): inactive

C[C@@H]1O[C@@H](O[C@H]2[C@H](Oc3cc(O)c4c(c3)O[C@H](c3ccc(O)cc3)CC4=O)O[C@H](CO)[C@@H](O)[C@@H]2O)[C@H](O)[C@H](O)[C@H]1O
outcome [9]: inactive

C/C(=C(/C)c1ccc(O)cc1)c1ccc(O)cc1
relative binding affinity (ChemClass_ERB: DES Derivatives): 14.4%

O=c1cc(-c2ccccc2)oc2cc(O)cc(O)c12
outcome [2]: inactive

O=C1C[C@@H](c2ccc(O)cc2)Oc2cc(O)cc(O)c21
relative binding affinity [9]: 0.0074%

O=C(OCc1ccccc1)c1ccc(O)cc1
relative binding affinity (ChemClass_ERB: Phenols Parabens): 0.00288%

C[C@H]1CCCC(=O)CCCCCc2cc(O)cc(O)c2C(=O)O1
relative binding affinity [10]: 2.09%

C[C@]12CC[C@@H]3c4ccccc4CC[C@H]3[C@@H]1CC[C@@H]2O
relative binding affinity [7]: 0.501%

C(/C=C/c1ccccc1)=C\c1ccccc1
outcome (ChemClass_ERB: Misc): inactive

O=C1C=CC(=C(c2ccc(O)cc2)c2ccc(O)cc2)C=C1
relative binding affinity [5]: 0.0316%

Oc1ccc(-c2ccccc2)cc1
relative binding affinity [11]: 0.00091%

CC(C)CCCCCCOC(=O)c1ccccc1C(=O)OCCCCCCC(C)C
outcome (ChemClass_ERB: Misc): inactive

O=C(CCc1ccc(O)cc1)c1c(O)cc(O)cc1O
relative binding affinity [3]: 0.069%

O=C1CC(c2cccc(O)c2)Oc2ccccc21 (configuration not stated)
relative binding affinity [9]: 0.00165%

C[C@]12CC[C@@H]3c4ccc(O)c(O)c4CC[C@H]3[C@@H]1CC[C@@H]2O
relative binding affinity [7]: 66.1%

C[C@]12CC[C@@H]3c4ccc(O)cc4[C@@H](O)C[C@H]3[C@@H]1CC[C@@H]2O
relative binding affinity [7]: 0.708%

O=C(c1ccc(O)cc1)c1ccc(O)cc1
relative binding affinity (ChemClass_ERB: Diphenylmethanes Benzophenone): 0.0035%

C=CC1(C)OC(=O)N(c2cc(Cl)cc(Cl)c2)C1=O (configuration not stated)
outcome (ChemClass_ERB: Misc): inactive

CCC(c1ccc(O)cc1)C(CC)c1cc(C)c(O)c(C)c1 (configuration not stated)
relative binding affinity [1]: 8.91%

Oc1cccc(-c2ccccc2)c1
relative binding affinity [11]: 0.00036%

CCC(c1ccc(O)c(O)c1)C(CC)c1ccc(O)c(O)c1 (configuration not stated)
relative binding affinity [1]: 15.5%

CCc1cccc(C)c1N(C(=O)CCl)C(C)COC (configuration not stated)
outcome (ChemClass_ERB: Misc): inactive

CNC(=O)Oc1cccc2c1OC(C)(C)C2
outcome (ChemClass_ERB: Misc): inactive

O=C(/C=C/c1ccc(O)cc1)c1ccccc1
relative binding affinity [3]: 0.00281%

c1ccc2c(c1)ccc1c3ccccc3ccc21
outcome (ChemClass_ERB: Misc): inactive

CCc1cccc(O)c1
relative binding affinity (ChemClass_ERB: Phenols Alkyl): 0.00013%
